Laboratory results reported in paper PMC4415909 (Journal of Medicinal Chemistry, 2015).
Counter-ions that a name gives are not always drawn. Values belong to the compound of their own block, whether it stands above or below them.

Legend:
[1] = tested on: retinal pigment epithelium (RPE) layer of the eye; details: cited from earlier work
BACE1 = BACE1 (Homo sapiens, UniProt P56817); assay type: biochemical
[2] = Human hepatocyte clearance; assay type: in vitro ADME; details: hepatocytes
[3] = tested on: major CYP-P450s (1A2, 2C9, 2D6, 3A4, 2C8, 2C19); test: Multipoint cocktail DDI IC50 assay, major CYP-P450s; assay type: in vitro ADME; details: human, pooled human liver microsomes (HL-MIX-102), pH 7.4
hERG = hERG (Homo sapiens, UniProt Q12809); test: hERG patch clamp assay in hERG-expressing CHO cells; assay type: cell-based; details: pH 7.35
[4] = cited from earlier work

BACE1, sequence (P56817 46-457 limits assumed): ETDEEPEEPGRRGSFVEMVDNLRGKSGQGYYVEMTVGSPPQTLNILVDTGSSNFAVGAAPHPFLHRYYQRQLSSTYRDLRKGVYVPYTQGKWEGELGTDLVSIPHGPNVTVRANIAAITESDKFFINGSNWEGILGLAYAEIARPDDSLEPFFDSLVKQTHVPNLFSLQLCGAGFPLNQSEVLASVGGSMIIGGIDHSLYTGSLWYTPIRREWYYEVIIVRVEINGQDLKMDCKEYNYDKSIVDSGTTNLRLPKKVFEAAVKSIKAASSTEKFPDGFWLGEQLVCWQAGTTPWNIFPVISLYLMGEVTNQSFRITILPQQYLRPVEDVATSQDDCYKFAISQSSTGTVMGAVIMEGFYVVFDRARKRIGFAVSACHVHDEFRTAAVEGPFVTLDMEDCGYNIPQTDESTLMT
hERG, sequence (Q12809 whole entry): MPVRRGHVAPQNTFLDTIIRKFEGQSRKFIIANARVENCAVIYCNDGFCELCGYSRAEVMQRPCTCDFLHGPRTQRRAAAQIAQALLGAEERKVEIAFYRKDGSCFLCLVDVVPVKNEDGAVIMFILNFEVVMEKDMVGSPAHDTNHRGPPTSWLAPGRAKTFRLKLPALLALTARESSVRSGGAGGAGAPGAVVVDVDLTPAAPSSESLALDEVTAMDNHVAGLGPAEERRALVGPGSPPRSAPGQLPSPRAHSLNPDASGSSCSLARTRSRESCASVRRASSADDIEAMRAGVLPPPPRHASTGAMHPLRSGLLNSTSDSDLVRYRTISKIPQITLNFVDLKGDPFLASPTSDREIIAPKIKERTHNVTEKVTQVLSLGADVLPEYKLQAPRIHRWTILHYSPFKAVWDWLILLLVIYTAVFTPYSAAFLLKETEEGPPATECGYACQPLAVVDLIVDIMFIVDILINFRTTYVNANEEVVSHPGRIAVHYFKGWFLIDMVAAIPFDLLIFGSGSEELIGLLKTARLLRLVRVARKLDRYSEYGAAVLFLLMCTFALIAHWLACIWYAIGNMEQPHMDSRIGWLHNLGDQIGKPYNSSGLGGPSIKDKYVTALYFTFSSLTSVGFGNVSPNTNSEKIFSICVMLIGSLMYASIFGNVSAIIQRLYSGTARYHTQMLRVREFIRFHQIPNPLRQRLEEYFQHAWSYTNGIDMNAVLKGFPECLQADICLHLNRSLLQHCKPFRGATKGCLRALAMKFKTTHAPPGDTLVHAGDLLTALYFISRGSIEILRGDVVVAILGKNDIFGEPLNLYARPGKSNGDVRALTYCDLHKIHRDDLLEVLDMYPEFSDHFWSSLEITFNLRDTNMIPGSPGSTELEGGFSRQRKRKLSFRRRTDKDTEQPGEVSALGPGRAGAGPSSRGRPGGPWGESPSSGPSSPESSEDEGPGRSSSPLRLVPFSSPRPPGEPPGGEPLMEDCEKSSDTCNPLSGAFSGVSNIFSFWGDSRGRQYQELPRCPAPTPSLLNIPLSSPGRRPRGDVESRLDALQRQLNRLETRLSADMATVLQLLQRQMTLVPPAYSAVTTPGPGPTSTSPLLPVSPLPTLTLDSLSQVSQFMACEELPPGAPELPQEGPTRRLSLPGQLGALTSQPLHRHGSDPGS

SMILES: CC1(C#Cc2cnc3c(c2)[C@]2(COC(N)=N2)c2cc(-c4cccnc4F)ccc2O3)COC1 [AMG-8718]
finding in rat safety studies [1]: accumulation of autofluorescent material and degeneration of the retinal pigment epithelium (RPE) layer of the eye

improvement of BACE1 potency over 1 (BACE1): ~2 fold
LipE (BACE1; LipE = BACE1 CFA pIC50 – log D): 5.2
SMILES: NC1=N[C@@]2(c3ccc(F)cc3F)CO[C@@H](c3ncco3)C[C@H]2CS1 [Compound 2, (4aR,6R,8aS)-8a-(2,4-Difluorophenyl)-6-(oxazol-2-yl)-4,4a,5,6,8,8a-hexahydropyrano[3,4-d][1,3]thiazin-2-amine]

improvement of BACE1 potency over compound 2 (BACE1): approximately 10 fold
SMILES: Cc1coc([C@H]2C[C@H]3CSC(N)=N[C@@]3(c3ccc(F)cc3F)CO2)n1 [Compound 3, (4aR,6R,8aS)-8a-(2,4-Difluorophenyl)-6-(4-methyloxazol-2-yl)-4,4a,5,6,8,8a-hexahydropyrano[3,4-d][1,3]thiazin-2-amine]

improvement of BACE1 potency over compound 2 (BACE1): approximately 10 fold
SMILES: Cc1cc([C@H]2C[C@H]3CSC(N)=N[C@@]3(c3ccc(F)cc3F)CO2)on1 [Compound 4, (4aR, 6R, 8aS)-8a-(2,4-Difluorophenyl)-6-(3-methyl-1,2-oxazo1-5-yl)-4,4-a,5,6,8,8a-hexahydropyrano [3,4-][1,3]thiazin-2-amine]

hepatocyte CLint [2]: < 6 µL/min/1e6 cells
improvement of BACE1 potency over compound 2 (BACE1): approximately 10 fold
SMILES: Cn1cc([C@H]2C[C@H]3CSC(N)=N[C@@]3(c3ccc(F)cc3F)CO2)cn1 [Compound 5, (4aR,6R,8aS)-8a-(2,4-Difluorophenyl)-6-(1-methyl-1H-pyrazol-4-yl)-4,4a,5,6,8,8a-hexahydropyrano[3,4-d][1,3]thiazin-2-amine]

IC50 [3]: > 30 µM
SMILES: Cc1coc([C@H]2C[C@H]3[C@@H](C)SC(N)=N[C@@]3(c3ccc(F)cc3F)CO2)n1 [Compound 9, (4R,4aR,6R,8aS)-8a-(2,4-Difluorophenyl)-4-methyl-6-(4-methyloxazol-2-yl)-4,4a,5,6,8,8a-hexahydropyrano[3,4-d][1,3]thiazin-2-amine]

IC50 [3]: > 30 µM
SMILES: Cc1coc([C@H]2C[C@H]3[C@@H](CF)SC(N)=N[C@@]3(c3ccc(F)cc3F)CO2)n1 [Compound 12, (4S,4aR,6R,8aS)-8a-(2,4-Difluorophenyl)-4-(fluoromethyl)-6-(4-methyloxazol-2-yl)-4,4a,5,6,8,8a-hexahydropyrano[3,4-d][1,3]thiazin-2-amine]

IC50 [3]: > 30 µM
SMILES: Cc1cc([C@H]2C[C@H]3[C@@H](CF)SC(N)=N[C@@]3(c3ccc(F)cc3F)CO2)on1 [Compound 13, (4S,4aR,6R,8aS)-8a-(2,4-Difluorophenyl)-4-(fluoromethyl)-6-(3-methyl-1,2-oxazol-5-yl)-4,4a,5,6,8,8a-hexahydropyrano[3,4-d][1,3]thiazin-2-amine]
improvement of hERG margin compared to isoxazole 10 (hERG): greater than 7 fold

IC50 [3]: > 30 µM
SMILES: Cn1cc([C@H]2C[C@H]3[C@@H](CF)SC(N)=N[C@@]3(c3ccc(F)cc3F)CO2)cn1 [Compound 14, (4S,4aR,6R,8aS)-8a-(2,4-Difluorophenyl)-4-(fluoromethyl)-6-(1-methyl-1H-pyrazol-4-yl)-4,4a,5,6,8,8a-hexahydropyrano[3,4-d][1,3]thiazin-2-amine, Hydrochloride Salt]

SMILES: C[C@@]1(c2cc(-c3cncnc3)c(F)cc2F)CCSC(N)=N1 [LY2811376]
finding in rat safety studies [1]: accumulation of autofluorescent material and degeneration of the retinal pigment epithelium (RPE) layer of the eye

SMILES: NC1=N[C@@]2(c3cc(NC(=O)c4ccc(F)cn4)ccc3F)COC[C@H]2CS1 [LY2886721]
finding that terminated phase II study [4]: abnormal liver biochemical tests
